Reference: US20260125350A1, “CENTROMERE PROTEIN CENP-M SMALL MOLECULE INHIBITOR CENPEMLIN, AND PREPARATION METHOD THEREFOR AND USE THEREOF” (UNIVERSITY OF SCIENCE AND TECHNOLOGY OF CHINA, priority 2022, published 2026)

Legend:
[1] = system: HeLa cells stably expressing GFP-CENP-N; assay: Chromosome alignment phenotype in mitosis, immunofluorescence imaging; format: cell-based; details: 1 μM, 1 h, after thymidine release
Description: • 1) HeLa cells stably expressing GFP-CENP-N were seeded on a round coverslip with a diameter of 12 mm; • 2) after 24 h, Thymidine was added to the cells at a final concentration of 2 mM for 14-16 h; • 3) the cells were washed three times with PBS prewarmed at 37° C. to elute Thymidine, and fresh culture medium was added to continue culturing for 8 h; • 4) cempelin was added to the experimental group at a final concentration of 1 μM, and the control group was added with an equal volume of DMSO for 1 h; • 5) the cells were fixed with PBS buffer containing 3.7% formaldehyde for 10 min; • 6) after 0.2% TritonX-100 permeabilization and 1% BSA blocking, ACA antibody was incubated at room temperature for 1 h; • 7) DAPI was stained for 3 min and then the slides were sealed; • 8) the slides were placed on the DV microscope stage and imaged by a 60×, NA=1.42 lens.

[2] = system: HeLa cells; assay: Real-time live cell imaging of mitosis (mitotic arrest); format: cell-based; details: 1 μM
Description: • 1) Inoculate HeLa cells into 35 mm live cell culture dishes; • 2) transfect plasmid DNA: GFP-tubulin and mCherry-H2B after 24 h (the density of transfected plasmid cells is 70%-80%); • 3) replace with fresh culture medium 6 h after transfection and add 2 mM Thymidine to treat cells for 14-16 h; • 4) wash cells 3 times with PBS preheated at 37° C. to release cells, then replace with fresh culture medium to continue culturing; • 5) turn on the Applied Precision Personal DV microscope and thermostat to stabilize the temperature at 37° C.; • 6) 8-9 h after release, replace the cell culture medium with CO2-independent Medium, add cenpemlin with a final concentration of 1 μM or the same volume of DMSO; • 7) place the cells on the 37° C. thermostat stage of the DV microscope and shoot real-time under a 60×, NA=1.42 lens, taking one frame every 3 min.

[3] = system: HeLa cells; assay: Elution (washout) effect, real-time live cell imaging after MG132 and compound treatment; format: cell-based; details: 1 h with MG132 20 μM and compound, then washed out
Description: • 1) Seed HeLa cells into 35 mm live-cell imaging dishes; • 2) transfect plasmid DNA after 24 h: GFP-tubulin and mCherry-H2B (the density of transfected plasmid cells is 70%-80%); • 3) replace with fresh culture medium 6 h after transfection and add MG132 at a final concentration of 20 μM and cenpemlin or DMSO to treat the cells for 1 h; • 4) turn on the Applied Precision Personal DV microscope and the thermostat to stabilize the temperature at 37° C.; • 5) wash the cells three times with PBS prewarmed at 37° C. to release the cells, and then replace with fresh culture medium to continue culturing; • 6) immediately after release, replace the cell culture medium with CO2-independent Medium; • 7) place the cells on the 37° C. thermostat stage of the DV microscope and imaging in real time by a 60×, NA=1.42 lens, taking one frame every 3 min.

[4] = target: T1, interaction between CENP-M and CENP-L (Homo sapiens, UniProt Q9NSP4); assay: Co-immunoprecipitation of GFP-CENP-M with FLAG-CENP-L from treated HEK293T cells, immunoblot; format: cell-based; details: 1 μM, 1 h, FLAG beads pull-down
T1 construct: expressed in transfected cells; host or cells: HEK293T
Description: • 1) Inoculate HEK293T cells into 6 cm culture dishes; • 2) transfect plasmid DNA: GFP-CENP-M and FLAG-CENP-L after 24 h (the density of cells is 70%-80%); • 3) replace with fresh culture medium 4 h after transfection and continue to culture for 24 h; • 4) add cenpemlin with a final concentration of 1 μM or the same volume of DMSO to treat cells for 1 h; • 5) scrape the cells with a cell scraper, collect them in a centrifuge tube, and remove the culture medium by centrifugation at 1,000 rpm; • 6) add cell lysis buffer for ultrasonic disruption, and centrifuge at 12,000 rpm for 10 min; • 7) take the supernatant and incubate with FLAG beads for 4 h; • 8) wash the beads for three times with cell lysis buffer, boil the sample with sample buffer, and then perform electrophoresis and immunoblot analysis.

[5] = system: HeLa cells (cervical cancer cells); assay: Trypan blue staining of cancer cells after treatment; format: cell-based; details: 1 μM, 24 h
Description: (§1) • 1) HeLa cells (cervical cancer cells), MDA-MB-231 cells (triple negative breast cancer cells) and HepG2 cells (liver cancer cells) were seeded into 6 cm culture dishes; • 2) The small molecule compound cenpemlin or DMSO was added at a final concentration of 1 μM to treat the cells for 24 h; • 3) The cells were digested with trypsin and the cell suspension was taken for trypan blue staining; • 4) The blue-stained cells were observed and counted under an ordinary optical microscope.

[6] = system: HepG2 cells (liver cancer cells); assay: as above; format: cell-based; details: 1 μM, 24 h
Description: as §1

[7] = system: MDA-MB-231 cells (triple negative breast cancer cells); assay: as above; format: cell-based; details: 1 μM, 24 h
Description: as §1

[8] = system: liver cancer cells MHCC97-H cells; assay: Liver implantation model of luciferase-stable liver cancer cells in mice, luciferase imaging; format: in vivo, NOD/SCID mice; details: intraperitoneal injection, 11th day of administration; cenpemlin 2 mg/kg
Description: • 1) According to the published experimental protocol (Chen et al., 2011. Cancer Res), we implanted luciferase-stable liver cancer cells MHCC97-H cells (5×10^6 in 0.1 mL saline) into the liver of 6-week-old female NOD/SCID mice. The experiment was divided into three groups, namely the DMSO control group, the paclitaxel group and the cenpemlin group (2 mg/kg), with 10 mice in each group. • 2) After 14 days of modeling (successful modeling of luciferase test), the DMSO control group, the paclitaxel group and the cenpemlin experimental group (2 mg/kg) were intraperitoneally injected (0.2 mL per mouse; 0.1 mL was injected on both sides) […]. • 3) After four injections every other day (the 11th day of administration), the luciferase test was performed.

T1 sequence (Q9NSP4 whole entry): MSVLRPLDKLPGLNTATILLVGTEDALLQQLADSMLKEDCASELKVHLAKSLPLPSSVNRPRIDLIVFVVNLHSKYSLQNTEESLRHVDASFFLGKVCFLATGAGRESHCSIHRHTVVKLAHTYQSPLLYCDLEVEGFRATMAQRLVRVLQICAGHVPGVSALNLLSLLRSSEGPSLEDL

Structure (SMILES)	chromosome alignment in cell mitosis [1]	time after nuclear membrane rupture without entering the late stage ([2]; HeLa) [min]	mitotic progression (delay) ([2]; HeLa GFP-tubulin/mCherry-H2B)	spindle phenotype after elution [3]	time to exit mitosis after elution [3] [min]	interaction between CENP-M and CENP-L compared with control group [4]	proportion of trypan blue stained cells [5]	proportion of trypan blue stained cells [6]	proportion of trypan blue stained cells [7]	number of cancer cells in the liver of mice (luciferase test) [8]
OCC(O)C(O)C(O)C(O)/C=N/Nc1nc(N2CCOCC2)nc(N2CCOCC2)n1 (centres unmarked) [cenpemlin]	abnormal chromosome alignment	> 120	obvious mitotic delays	multipolar spindles	45	weakened	increase	increase	increase	significantly reduced
CC(=O)O[C@H]1C(=O)[C@@]2(C)[C@H]([C@H](OC(=O)c3ccccc3)[C@]3(O)C[C@H](OC(=O)[C@H](O)[C@@H](NC(=O)c4ccccc4)c4ccccc4)C(C)=C1C3(C)C)[C@]1(OC(C)=O)CO[C@@H]1C[C@@H]2O [paclitaxel, reference compound]	–	–	–	–	–	–	–	–	–	significantly reduced
